Results reported in US20250212873A1, “VOLATILE HDAC INHIBITORS FOR THERAPEUTIC AND PLANT APPLICATIONS” (The Regents of the University of California, priority 2022, published 2025).
“Also recorded” adds a separate entry of the source.

Legend:
[1] = tested on: Arabidopsis thaliana seedlings; assay: Odor Exposure assay, Arabidopsis thaliana seedlings (root and leaf development); type: in vivo
Experimental: The Odor Exposure assay consists of controlled exposure of volatile odor compounds to model plant Arabidopsis within enclosed aquariums and similar growth conditions (23° C. with a 12-hour light/dark cycle). For Arabidopsis, seedlings were aligned on agar plates for growth after a 4-day cold treatment process. The agar plates with seedlings were then placed in enclosed aquariums with moist paper towels soaked in 10 ml of DI water for humidity. The plates were placed along the wall, approximately 12 cm from odor dispensers which resided in the center of the glass tank.
The test compound odor dispensers, consisting of (60×15 mm) polystyrene Petri dishes containing 2 ml of 1% v/v in PO, are replaced at the 3.5, 5, and 6-day time mark during the 7-day experiment. Root growth is marked during each time mark and the plates were imaged. The plants are to be collected after the 7-day exposure, photographed, and the leaves/roots carefully dissected separated, flash frozen in liquid nitrogen, and preserved for future sequencing. Root growth is measured using ImageJ.
In order to study the physiological effects of long-term exposure to microbial volatiles the model system Arabidopsis was exposed for […] to diacetyl, a volatile chemical emitted by fermentation by yeast or microbial degradation in the soil associated with roots (R. J. Morcillo et al., EMBO J 39, e102602 (2020); M. A. Farag, et al., Phytochemistry 67, 2262-2268 (2006); and C. M. Ryu et al., P Natl Acad Sci USA 100, 4927-4932 (2003). The Odor Exposure assay consisted of controlled exposure of volatile HDAC inhibiting compounds to model plant Arabidopsis within enclosed aquariums and similar growth conditions. The test compound odor cartridges, consisting of 60×15 mm polystyrene Petri dishes containing 2 ml of indicated concentration in Paraffin Oil, were replaced at the 3.5, 5, and 6-day time mark during the 7-day experiment (FIG. 1A, left). In separate experiments the weight loss from the odor cartridges over time was measured and used it to calculate the concentration of diacetyl in the glass chambers in parts per million (FIG. 1A, right).
In order to directly evaluate whether exposure to vapors of the four HDAC-inhibitory VOCs affect root development, we performed a set of experiments using A. thaliana seedlings as before. Solutions for each of the four chemicals on a small petri dish were placed away from the seedlings growing in agar plate and enclosed in glass tank. The Root tips were marked at specified days post treatment start and photographs analyzed. The plants were collected after the 7-day exposure, photographed, and the roots were separated. Detailed measurements were made from the photos using ImageJ and the root length and numbers of lateral roots quantified at day 3.5 and day 7 after start if the treatment (FIG. 1B).
The Odor Exposure assay consists of controlled exposure of volatile odor compounds to model plant Arabidopsis within enclosed aquariums and similar growth conditions (23° C. with a 12-hour light/dark cycle). The test compound odor cartridges, consisting of (60×15 mm) polystyrene Petri dishes containing 2 ml of 1% v/v in paraffin oil (PO), were replaced at the 3.5, 5, and 6-day time mark during the 7-day experiment. Root growth was marked during each time point and the plates were imaged. Numbers of true leaves were also counted. The plants are to be collected after the 7-day exposure, photographed, and the leaves/roots carefully dissected separated, flash frozen in liquid nitrogen, and preserved for future sequencing. Root growth is measured using ImageJ.

[2] = tested on: Arabidopsis thaliana seedlings; assay: as above; type: in vivo; conditions: 10-fold lower dose (0.1% solution headspace)
[3] = tested on: mouse brain; assay: Brain RNA-seq of mice exposed to diacetyl vapors; type: in vivo; conditions: 5 days
From the text: HDAC inhibitors are an important class of drugs being tested for a number of different conditions including neurodegenerative diseases and brain cancers. A major design challenge for such drugs is the ability to cross the blood-brain barrier. An interesting possibility that arises due to the volatility and small size of odorants is that they could diffuse through the intranasal route to the brain directly. To test whether cells in the brain respond to diacetyl vapors by altering gene expression RNA-seq experiments were carried out on mice exposed only to aroma of diacetyl for 5 days. Littermate controls were exposed in a similar manner to the solvent (PO) headspace.
The DEGs from the diacetyl-exposed mouse brain transcriptome for several of these key genes were evaluated.

[4] = tested on: A. thaliana plants (Col-0); assay: Flowering assay; type: in vivo, Arabidopsis thaliana; conditions: vapors from 0.1% solution
From the text: Dramatic effects of VOCs have been seen in the seedling stage. The effects on with flowering timing were observed, since the process involves numerous changes in gene expression and therefore potentially susceptible to HDAC inhibitory volatiles. Mutants in HDACs like HDA5 show delayed flowering due to upregulation of flowering repressor genes like FLC and MAF1 (M. Luo et al., Plant J 82, 925-936 (2015)). Conversely, mutants in HDA9lead to early flowering due to increased expression of FLOWERING LOCUS T (FT) and AGAMOUS-LIKE 19 (AGL19) (M. J. Kang, et al., New Phytol 206, 281-294 (2015)). We placed 3 weeks old A. thaliana plants in the glass chambers and exposed them to the vapors of two of the VOCs, diacetyl and α-angelica lactone volatilizing from 0.1% solutions in the glass chamber.
Twenty-seven day old A. thaliana plants (Col-0), that had been transplanted at day 7 to soil, were placed in 10-gallon glass aquarium as chamber along with a petridish containing 2 ml of chemical dissolved in PO or PO alone were placed at the other side of the container. Plants were exposed to odors until all plants began to flower, with odor cartridges being replaced daily. Signs of flower buds opening were counted as plant flowering. One-way analysis of Variance (ANOVA) between groups was performed for plant exposure quantitative data using Graph Pad Prism 9.

[5] = 7-day exposure, headspace of 1% v/v in Paraffin oil
[6] = 0.1% headspace, |log2 fold-change|>1, FDR<0.05
[7] = 1% headspace, |log2 fold-change|>1, FDR<0.01

Structure (SMILES): CC(=O)C(C)=O [2,3-butanedione]
- root growth ([1]; 3.5-day exposure, headspace of 1% v/v in Paraffin oil): significant root growth inhibition
- lateral root growth (number of lateral roots) [1, 5]: increase; also recorded: notable lateral root promotion; also recorded: significant phenotypic changes
- leaf development (number of large / true leaves) [1, 5]: changes in the number of true leaf development/growth; also recorded: significant phenotypic changes
- lateral root growth (number of lateral roots) ([1]; 7-day exposure, headspace of 1% v/v in Paraffin oil, listed as 2,3-butandione): promoted lateral root growth
- leaf development (number of large / true leaves) ([1]; 7-day exposure, headspace of 1% v/v in Paraffin oil, listed as diacetyl): significant decreases
- root growth (primary root length) ([1]; 7-day exposure, headspace of solution in Paraffin oil): lack of growth
- lateral roots, number relative to control ([1]; highest dose, 7-day exposure): ~3 times
- change from solvent treated seedlings in every growth category [2]: significant change
- down regulated genes in mouse brain [3, 6]: 32 genes
- up-regulated genes in mouse brain [3, 6]: 49 genes
- down regulated genes in mouse brain [3, 7]: 1031 genes
- up-regulated genes in mouse brain [3, 7]: 748 genes
- Alk expression in mouse brain ([3]; exposed mice of FIG. 22B (1%)): significantly downregulated
- ERCC6L2 expression in mouse brain ([3]; exposed mice of FIG. 22B (1%)): significantly downregulated
- MycN expression in mouse brain ([3]; exposed mice of FIG. 22B (1%)): significantly downregulated
- NCAN expression in mouse brain ([3]; exposed mice of FIG. 22B (1%)): significantly downregulated
- STK33 expression in mouse brain ([3]; exposed mice of FIG. 22B (1%)): significantly downregulated
- gene expression in the mouse brain (RNA-seq), in words ([3]; inhaled vapors, 0.1% or 1% solution headspace): changes in expression of a number of genes, in a dose dependent manner
- delay in flowering [4]: 11 days
